These results are taken from patent publication US20260015632A1, “CULTURE MEDIUM COMBINATION FOR INDUCING DIFFERENTIATION OF PLURIPOTENT STEM CELLS INTO CD34+ HEMATOPOIETIC STEM/PROGENITOR CELLS” (SHENZHEN CELL INSPIRE BIOTECHNOLOGY CO., LTD., priority 2023, published 2026).

Common to all, as to assay type: cell-based, human
Assay [1] concerns iPSCs. Nature of the assay: Optimization of iNK purity and yield, flow cytometry CD56/CD45 and fold expansion. The settings on record: for proliferation rate of iNK cells: concentrations and media as in Example 5; for proportion of CD56+ or CD45+ cells / yield of iNK cells: added to fourth differentiation medium: NAD+, 0.1 ng/mL HLA-C, 1000 IU IL-2 or 15 μM SB203580. More on the design: yield of HSPCs / yield of iNK cells differentiated from these HSPCs: dose or concentration left out as unconfirmed. Here is the method: To further improve the differentiation efficiency and cytotoxicity of the obtained NK cells, UM171 was added to the second differentiation medium. […] The expression levels of CD56 and CD45 of the obtained NK cells and the cell fold expansion were measured by flow cytometry.
(§1) The cell expansion at the HSPC stage and the NK stage was calculated by dividing the number of suspension cells obtained at the sampling time point by the initial number of iPSCs at the spheroidization stage. The cell number was determined using the Countess™ 2 automated cell counter, and specific operating procedures can be found in the instrument's instructions.

In assay [2] the test system is iPSCs. Nature of the assay: qPCR marker expression on Day 3 of iPSC differentiation, optimization of first differentiation medium. The settings on record: Day 3 of differentiation, 50 ng/mL BMP4, 10 μM CHIR99021; for expression of OCT4: added to first differentiation medium (mTeSR1+5 μM Y27632), alone or combined; for expression of early mesoderm and mesoderm markers (MIXL1 and T) / expression of hemogenic endothelial lineage-related markers (KDR, SCL) / expression of the HSPC marker (CD34): added to first differentiation medium. The protocol:
iPSCs were aggregated into spheroids by either static spheroidization or shaking spheroidization. • 1) Static spheroidization. An appropriate number of iPSCs in a single-cell state were transferred to an AggreWell™ microwell plate, and subsequent operations were carried out according to the AggreWell™ 400 or AggreWell™ 800 instructions. Briefly, the concentration of the single-cell suspension was adjusted, and sufficient volumes of the single-cell suspension were added to each well of the AggreWell™ 400 or AggreWell™ 800 to achieve approximately 500,000 iPSCs in a single-cell state per well. Then, each well was supplemented with mTeSR™1 or TeSR™-AOF medium, and 5 μM Y27632 was added to reach a total of 5 mL/well. Then, a balance plate filled with water was prepared to match the weight and position of the AggreWell™ microwell plate in the centrifuge. The cells were then pipetted gently up and down several times to ensure uniform distribution of cells across the wells. The AggreWell™ plate was immediately centrifuged at 100 g for 3 minutes using the balanced plate prepared in the previous step to force the cells into the microwells. The plate was observed under a microscope to verify that the cells were evenly distributed in the microwells. The cells were cultured under static conditions at 37° C., 5% CO2, and 95% humidity for 1 to 2 days. • 2) Shaking spheroidization. The concentration of the single-cell suspension was adjusted, and 1.5 million iPSCs in a single-cell state were transferred to a 6-well plate. Each well was supplemented with mTeSR™1 medium containing 5 μM Y27632, 50 ng/mL BMP4, and 10 μM CHIR99021 to achieve a volume of 3 mL per well. The culture plate was placed on an orbital shaker at 60 rpm, 70 rpm, 80 rpm, or 90 rpm for culture, and the wells with uniform sized spheroids were selected for subsequent culture.
The iPSCs in the single-cell state were resuspended in the following four media after harvesting: 1) mTeSR™1+5 μM Y27632, 2) mTeSR™1+5 μM Y27632+50 ng/mL BMP4, 3) mTeSR™1+5 μM Y27632+10 μM CHIR99021, and 4) mTeSR™1+5 μM Y27632+50 ng/mL BMP4+10 μM CHIR99021. The cells were then cultured according to the method in Example 1. On Day 3 of differentiation, the cells were lysed, and mRNA was extracted and reverse-transcribed to obtain cDNA. The primers in Table 2 were used to measure the expression levels of OCT4, MIXL1, T, KDR, SCL, and CD34 in HSPCs on Day 3 of differentiation under the above-mentioned media conditions.
A general note: Quantitative PCR measures a nucleic acid by following its amplification.

Assay [3] concerns iPSCs. Nature of the assay: FACS proportion of CD34+ cells, additive in second differentiation medium. The settings on record: Day 12; 10 μM CHIR99021 or 0.75 μM SR1 added to second differentiation medium. Here is the method:
After 1 to 2 days of cell spheroidization, the medium was replaced with a second differentiation medium, and then the medium was changed every 2 days for 4 to 5 days of culture. The components of the second differentiation medium included: StemPro-34 complete medium supplemented with 1% ITS-X, 1 μM β-mercaptoethanol, 50 μg/mL ascorbic acid, 1× GlutaMAX, 50 ng/mL VEGF, 50 ng/mL bFGF, 50 ng/mL BMP4, and 35 nM UM171. At this stage, the cells can be transferred to a closed system for static culture or shaking culture.
After culturing for 3 days in the second differentiation medium, the medium was replaced with a third differentiation medium. The components of the third differentiation medium included: StemPro-34™ SFM complete medium supplemented with 1% ITS-X, 1 μM β-mercaptoethanol, 50 μg/mL ascorbic acid, 1× GlutaMAX, 50 ng/mL VEGF, 50 ng/mL bFGF, 50 ng/mL SCF, 10 ng/mL FLT3L, and 30 ng/mL TPO. The expression of CD34 or CD43, and CD44 was detected by FACS. […] The proportion and fold expansion of CD34^+ cells were detected at five time points: Day 8, Day 9, Day 10, Day 11, and Day 12. […]
In order to further increase the yield and proportion of CD34^+ cells, 10 μM CHIR99021 or 0.75 μM SR1 was added to the second differentiation medium of Example 1, and the proportion of CD34^+ cells in the cell population on Day 12 was detected by FACS. […]

The subject of assay [4] is iPSCs. Nature of the assay: UM171 in second and/or third differentiation medium: yield of HSPCs and iNK cells. The settings on record: 35 nM UM171 added to second differentiation medium. Here is the method:
35 nM UM171 was added to the second differentiation medium and/or the third differentiation medium in Example 1, and the proportion of CD34^+ cells in the cell population on Day 12 and the proportion of CD56^+ cells in the cell population on Day 35 were detected by FACS. The results at these two time points are shown in FIG. 16, which indicate that the addition of UM171 to the second differentiation medium can increase the yield of HSPCs differentiated from iPSCs and the yield of iNK cells differentiated from HSPCs.
as §1

Where [5] appears, read: ABC294640 added to second and third differentiation medium.

For `O=C(NCc1ccncc1)C12CC3CC(C1)CC(c1ccc(Cl)cc1)(C3)C2` [ABC294640], in the assay on iPSCs [1] (setting [5]), the “yield of HSPCs” value was “reducing” and the “yield of iNK cells differentiated from these HSPCs” value was “significantly increase”. For the same molecule, the “proliferation rate of iNK cells” value with iPSCs [1] is on record as “increase”.

With `Cc1c[nH]c(-c2cnc(NCCNc3ccc(C#N)cn3)nc2-c2ccc(Cl)cc2Cl)n1` [CHIR99021], in the assay with iPSCs [2], the “expression of OCT4” value is given as “decreased significantly”; the “expression of early mesoderm and mesoderm markers (MIXL1 and T)” value was “began to decrease”; the “expression of hemogenic endothelial lineage-related markers (KDR, SCL)” value was “increased significantly”; the “expression of the HSPC marker (CD34)” value is on record as “significantly increased”. Further, the “proportion of CD34+ cells in the cell population” value with iPSCs [3] is listed as “increase”.

For the molecule `NC(=O)c1ccc[n+]([C@@H]2O[C@H](COP(=O)([O-])OP(=O)(O)OC[C@H]3O[C@@H](n4cnc5c(N)ncnc54)[C@H](O)[C@@H]3O)[C@@H](O)[C@H]2O)c1` [NAD^+, nicotinamide adenine dinucleotide], in the assay on iPSCs [1], the “proportion of CD56+ or CD45+ cells” value was “without affecting”, the “yield of iNK cells” value is “increase” and the “proliferation rate of iNK cells” value is recorded as “increase”.

Turning to `C[S+]([O-])c1ccc(-c2nc(-c3ccncc3)c(-c3ccc(F)cc3)[nH]2)cc1` (stereo not drawn) [SB203580], in the assay on iPSCs [1], the “proportion of CD56+ or CD45+ cells” value was “without affecting”, the “yield of iNK cells” value is “increase” and the “proliferation rate of iNK cells” value is “increase”.

`CC(C)n1cnc2c(NCCc3ccc(O)cc3)nc(-c3csc4ccccc34)nc21` [SR1]: the “proportion of CD34+ cells in the cell population” value with iPSCs [3] was “increase”.

For the molecule `Cn1nnc(-c2ccc3c(c2)[nH]c2nc(Cc4ccccc4)nc(NC4CCC(N)CC4)c23)n1` (stereo not drawn) [UM171], the “yield of HSPCs differentiated from iPSCs” value with iPSCs [4] (Day 12) was “increase”. The “yield of iNK cells differentiated from HSPCs” value in the assay on iPSCs [4] (Day 35) was “increase”.

B1: BMP4: growth factor added to the first and second differentiation medium (protein, UniProt P12644 293-408, looked up)
Bone morphogenetic protein 4: SPKHHSQRARKKNKNCRRHSLYVDFSDVGWNDWIVAPPGYQAFYCHGDCPFPLADHLNSTNHAIVQTLVNSVNSSIPKACCVPTELSAISMLYLDEYDKVVLKNYQEMVVEGCGCR
As to B1, in the assay with iPSCs [2], the “expression of OCT4” value was “decreased significantly”; the “expression of early mesoderm and mesoderm markers (MIXL1 and T)” value is recorded as “began to decrease”; the “expression of hemogenic endothelial lineage-related markers (KDR, SCL)” value is given as “increased significantly”; the “expression of the HSPC marker (CD34)” value is “significantly increased”.
